The values below come from patent publication US20230172874A1, “USE OF CANNABIDIOL FOR THE TREATMENT OF INSOMNIA ASSOCIATED TO PAIN” (priority 2021, published 2023).

Entries after “also recorded” stand apart in the source; their conditions may differ.

Assay [1] deals with neuropathic rats. Briefly: EEG/EMG recording of wakefulness, NREM and REM sleep in neuropathic rats. The format is in vivo, male Wistar rats. As to the method: Animals. The experiments were performed on male Wistar rats weighing 250 g (six weeks). All animals were housed in standardized animal facilities under a 12 h light/dark cycle (lights on at 7 AM) with ad libitum access to food and water. All surgeries and experimental procedures were performed during the light cycle. Experimental protocols were approved by the Animal Ethics Committee of the local institutional committee for animal use and care (McGill University, Qc, Canada). These protocols follow ethical guidelines for investigation of experimental pain in conscious animals of the IASP, the Canadian Institute of Health Research guidelines for animal care and scientific use.
Spared nerve injury (SNI). SNI was performed according to the method of Decosterd and Woolf^35. Rats were deeply anaesthetized with isofluorane (5%), anaesthesia was confirmed by the absence of a nociceptive reflex reaction to a paw pinch. The sciatic nerve was exposed at mid-thigh level distal to the trifurcation and freed of connective tissue; the three peripheral branches (sural, common peroneal, and tibial nerves) of the sciatic nerve were exposed without stretching nerve structures. Both tibial and common peroneal nerves were ligated and transected together. Carprofen (5 mg/kg) was administrated subcutaneously pre-surgery as well as three days every 24 hours post-surgery as analgesic. After SNI, each rat was housed in its home cage for 15 days until the neuropathy is developed.
EEG/EMG Implantation. Neuropathic rats (10 days after surgery) and naïve rats were placed in a stereotaxic frame following isoflurane-induced anesthesia (5%). Anaesthesia was confirmed by the absence of a nociceptive reflex reaction to a paw pinch. For EEG monitoring, three stainless-steel epidural electrodes were positioned through 1.5 mm burr holes: one over the parietal cortex on each side, and the third (as a reference) in the right prefrontal cortex. In rats, their respective locations relative to bregma were −2 mm anteroposterior (AP) and −3 mm lateral (L), −7 mm AP and −3 mm L, and −4.5 mm AP and +3 mm L, according to Paxinos and Watson. For EMG monitoring, three flexible stainless-steel wire electrodes, silicon insulation removed at the terminal 3-4 mm, were implanted into the neck muscles (two bilaterally and one in the middle). Wires were fused with the electrodes and the connectors were fixed to the skull with dental acrylic (Coltene/Whaledent). Carprofen (10mg/kg) was administrated subcutaneously pre-surgery as well as three days every 24 hours post-surgically as analgesic. Each rat was single-caged post-surgery and allowed to recover for the next 5 days^13. 24 hours after surgery, the rats were placed in the recording chamber and connected to a flexible 6-flat wire (3M Scotchflex™) in a freely moving manner for several hours during the subsequent 5 days. No recordings were performed, but tolerance to the cable and sleep behavior were observed. All rats from a home cage were also grouped for one hour each day for socialization to circumvent anxious-depressive-like behavior induced by social isolation^13.
Study design for EEG and EMG assessment. […] […] In another cohort of rats rimonabant (1 mg/kg) was also injected i.p. at 6 A.M. in neuropathic rats.
(§1) EEG and EMG recording. Six days after surgery (16 days post-SNI), mechanical allodynia was assessed via von Frey test, and EEG/EMG was recorded for a period of 6 h (from 6 AM to 12 PM). The treatments (described below) were performed at 6:00 A.M., right after the recording had started. […] Consecutive 10 s epochs were subjected to a fast Fourier transform (FFT), and EEG power spectra density was computed in the frequency range of 0-64 Hz^13.
Analysis of EEG and EMG data. The three classical vigilance states as described in the rat were discriminated on the basis of the cortical EEG and neck EMG activities. […]

The subject of a further assay is rats. The following applies: cited from earlier work.
In assay [2] the test system is neuropathic rats. Briefly: EEG power spectra (delta, theta, sigma bands) during NREM and REM sleep. The format is in vivo, male Wistar rats. As to the method: as §1
To determine the variations in power spectra induced by the pharmacological treatment of CBD and antagonists, the power densities were summed up over the frequency band of 0-25 Hz (total power). The data were then standardized by expressing all power spectral densities at the different 0.5 Hz bin frequency ranges (delta, theta, and sigma) as a percentage relative to the total power of the same epoch^16. Frequency ranges were 0-3.5Hz for delta, 4-8.5Hz for theta, and 11-14 Hz for sigma bands. The sum of power densities over a frequency band following treatments were expressed as the percentage difference from that in or naïve+veh or NP+vehicle group in statistical analysis. In the experiments with WAY 100635 the NP+CBD was compared with NP+vehicle, NP+WAY, NP+WAY+CBD.
To assess whether CBD (20 mg/kg) might affect the microarchitecture during the sleep, the intensity Delta (0.5-4 Hz), Theta ([…]) and Sigma (10-15 Hz) waves were measured during 6 hours of light phase in the 3 groups of rats (Naïve, SNI+VEH and SNI+CBD 20mg/kg). Data were converted as a percentage of variation vs. naive animals and One-way ANOVA was performed on the power of delta, theta and sigma waves during NREM and REN sleep.
To assess whether the 5-HT1A selective antagonist WAY 100635 (2 mg/kg) might reverse the effect of CBD (20 mg/kg) in the enhancement of power density (Delta, Theta, and Sigma waves) during sleep, the power spectra were measured for 6 hours in four groups of rats. The first group were NP rats treated with CBD vehicle (n=8), the second group were NP rats treated with WAY 100635 alone at 2 mg/kg (n=6), the third group were NP rats treated with WAY 100635 (2 mg/kg)+CBD (20 mg/kg; n=6), and the fourth group were NP treated with CBD at 20 mg/kg (n=8). Data were converted as a percentage of variation vs NP animals treated with vehicle.

The subject of another assay is healthy rats. To be noted: intracerebroventricular injection 10 μg/5 μL; cited from earlier work.
Setting [3] is: 6 h EEG/EMG, i.p., CBD 20 mg/kg, WAY 100635 2 mg/kg.
Setting [4] is: NP rats, 6 h EEG/EMG, i.p., CBD 20 mg/kg, rimonabant 1 mg/kg.

For `C=C(C)[C@@H]1CCC(C)=C[C@H]1c1c(O)cc(CCCCC)cc1O` [CBD, 2-[(1R,6R)-3-methyl-6-prop-1-en-2-ylcyclohex-2-en-1-yl]-5-pentylbenzene-1,3-diol], in the assay on neuropathic rats [1] (setting [3]), the “total NREM sleep, relative to NP rats treated with vehicle” value was “able to reverse NREM sleep impairments; also recorded: restored NREM sleep” and the “total time of wakefulness, relative to NP rats treated with vehicle” value is “decrease in the amount of time spent in wakefulness; also recorded: decreased wakefulness”. Also, the “REM sleep (total time), relative to NP rats treated with vehicle” value in the assay on neuropathic rats [1] (6 h EEG/EMG, i.p., CBD 20 mg/kg, WAY 100635 2 mg/kg, rimonabant 1 mg/kg) was “restored the normal REM sleep”. Further, the “NREM sleep, relative to naïve animals treated with vehicle” value with neuropathic rats [1] (NP rats, 6 h EEG/EMG, CBD 20 mg/kg i.p.) is listed as “no difference was detected”. In addition, in the assay on neuropathic rats [1] (setting [4]), the “REM sleep, relative to naïve animals treated with vehicle” value is listed as “no difference was detected” and the “wakefulness, relative to naïve animals treated with vehicle” value is listed as “no difference was detected”. For the same compound, in the assay with neuropathic rats [1] (NP rats, i.p., CBD 20 mg/kg, rimonabant 1 mg/kg), the “reversal of sleep perturbations induced by neuropathic pain (sleep-wake cycle)” value was “Reverses the Sleep Perturbations; also recorded: restored the normal sleep-wake cycle; also recorded: restores the impaired sleep in a dose-dependent manner”. In the assay on rats (CBD dose of 40 mg/kg), the “increase in SWS duration” value was “not statistically significant”. In addition, the “total percentage of sleep” value with rats (CBD doses of 10 and 40 mg/kg) is given as “significantly increased”. In the assay with neuropathic rats [2] (6 h, CBD 20 mg/kg), the “power of Sigma waves during REM sleep, relative to NP rats treated with vehicle” value is reported as “no statistically significant differences between groups; also recorded: no differences were found” and the “power of Theta waves during REM sleep, relative to NP animals treated with vehicle” value is “no statistically significant differences between groups”. For the same compound, the “power of theta waves during NREM sleep, relative to NP animals treated with vehicle” value in the assay with neuropathic rats [2] (6 h, CBD 20 mg/kg i.p.) is listed as “increases the intensity of the Theta waves; also recorded: increase in the theta power”. Also, the “Sigma waves during NREM sleep, relative to NP rats treated with vehicle” value in the assay on neuropathic rats [2] (6 h, CBD 20 mg/kg, WAY 100635 2 mg/kg) is on record as “no significant main effects; also recorded: did not detect differences”. Besides, the “power of Delta waves during NREM sleep, relative to NP rats treated with vehicle” value in the assay on neuropathic rats [2] (6 h light phase, CBD 20 mg/kg i.p.) is reported as “increase in the intensity of the power of Delta waves”. Besides, the “power of Delta waves during REM sleep, between groups (ANOVA)” value in the assay with neuropathic rats [2] (NP rats, 6 h, CBD 20 mg/kg, WAY 100635 2 mg/kg) was “no statistically significant differences between groups”. Also, in the assay on healthy rats, the REM sleep entry is listed as “decrease in REM sleep” and the wakefulness result was “increase in wakefulness”.
